Assay results: US6472348B1, “Pyridone derivatives and herbicides” (Kumiai Chemical Industry Co., Ltd., priority 1996, dated 2002)

System: corn (Ze)
Test: Test Example 7: crop plant selectivity by upland field soil treatment (corn), phytotoxicity
Type: in vivo
Parameters: scale not given here
Conditions: dose 6.3 g ai/10a, 21st day after application
Description: (§1) (Test on Crop Plant Selectivity by Upland Field Soil Treatment)
(§2) In a plastic pot (surface area: 600 cm^2) filled with sand, corn (Ze), green foxtail (Se), pale smartweed (Po), slender amaranth (Am), common lambsquarters (Ch) and China jute (Ab) were sown and covered with soil. […] The plants were then cultured in a green house, and the evaluation of the herbicidal effects and phytotoxicity was conducted on the 21st day after the application in accordance with the standards as identified in Table 47.

Row | SMILES | Phytotoxicity Ze
1 | CCCOc1cc(-c2ccc(C(F)(F)F)n(C)c2=O)c(F)cc1Cl [1-154] | 1

System: bulrush (Sc)
Test: Test Example 1: herbicidal effects by paddy field soil treatment;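 note: grade of growth control; 5 = at least 90%; 4 = 70 to 90%; 3 = 50 to 70%; 2 = 30 to 50%; 1 = 10 to 30%; 0 = under 10%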
Type: in vivo
Conditions: 100 g of the active ingredient per 10 ares, 21st day after the application, index 0-5 of Table 47
Summary of the method: (§3)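 Herbicidal effect was scored against a graded standard 21 days after treatment. Seeds were sown in puddled, leveled paddy soil flooded to 3 cm depth, and the active ingredient was applied at 100 g per 10 ares before greenhouse culture.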

Row | SMILES | Herbicidal effects Sc
2 | CCCOc1cc(-c2ccc(C(F)(F)F)n(C)c2=O)c(F)cc1Cl [1-154] | 5

System: monochoria (Mo)
Test: as above
Type: in vivo
Conditions: 100 g of the active ingredient per 10 ares, 21st day after the application, index 0-5 of Table 47
Summary of the method: as §3

Row | SMILES | Herbicidal effects Mo
3 | CCCOc1cc(-c2ccc(C(F)(F)F)n(C)c2=O)c(F)cc1Cl [1-154] | 5

System: barnyardgrass (Ec)
Test: as above
Type: in vivo
Conditions: 100 g of the active ingredient per 10 ares, 21st day after the application, index 0-5 of Table 47
Summary of the method: as §3

Row | SMILES | Herbicidal effects Ec
4 | CCCOc1cc(-c2ccc(C(F)(F)F)n(C)c2=O)c(F)cc1Cl [1-154] | 5

System: common lambsquarters (Ch)
Test: Test Example 2: herbicidal effects by upland field soil treatment;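 note: grade of growth control; 5 = at least 90%; 4 = 70 to 90%; 3 = 50 to 70%; 2 = 30 to 50%; 1 = 10 to 30%; 0 = under 10%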
Type: in vivo
Conditions: 100 g of the active ingredient per 10 ares, 21st day after the application, index 0-5 of Table 47
Description: (§4) (Test on Herbicidal Effects by Upland Field Soil Treatment)

Row | SMILES | Herbicidal effects Ch
5 | CCCOc1cc(-c2ccc(C(F)(F)F)n(C)c2=O)c(F)cc1Cl [1-154] | 5

System: Digitaria ciliaris (Di)
Test: as above
Type: in vivo
Conditions: 100 g of the active ingredient per 10 ares, 21st day after the application, index 0-5 of Table 47
Description: as §4

Row | SMILES | Herbicidal effects Di
6 | CCCOc1cc(-c2ccc(C(F)(F)F)n(C)c2=O)c(F)cc1Cl [1-154] | 5

System: slender amaranth (Am)
Test: as above
Type: in vivo
Conditions: 100 g of the active ingredient per 10 ares, 21st day after the application, index 0-5 of Table 47
Description: as §4

Row | SMILES | Herbicidal effects Am
7 | CCCOc1cc(-c2ccc(C(F)(F)F)n(C)c2=O)c(F)cc1Cl [1-154] | 5

System: rice flatsedge (Ci)
Test: as above
Type: in vivo
Conditions: 100 g of the active ingredient per 10 ares, 21st day after the application, index 0-5 of Table 47
Description: as §4

Row | SMILES | Herbicidal effects Ci
8 | CCCOc1cc(-c2ccc(C(F)(F)F)n(C)c2=O)c(F)cc1Cl [1-154] | 5

System: pale smartweed (Po)
Test: as above
Type: in vivo
Conditions: 100 g of the active ingredient per 10 ares, 21st day after the application, index 0-5 of Table 47
Description: as §4

Row | SMILES | Herbicidal effects Po
9 | CCCOc1cc(-c2ccc(C(F)(F)F)n(C)c2=O)c(F)cc1Cl [1-154] | 5

System: barnyardgrass (Ec)
Test: as above
Type: in vivo
Conditions: 100 g of the active ingredient per 10 ares, 21st day after the application, index 0-5 of Table 47
Description: as §4

Row | SMILES | Herbicidal effects Ec
10 | CCCOc1cc(-c2ccc(C(F)(F)F)n(C)c2=O)c(F)cc1Cl [1-154] | 5

System: green foxtail (Se)
Test: Test Example 7: crop plant selectivity by upland field soil treatment (corn), herbicidal effects
Type: in vivo
Parameters: scale not given here
Conditions: dose 6.3 g ai/10a, 21st day after application
Description: as §1, §2

Row | SMILES | Herbicidal effects Se
11 | CCCOc1cc(-c2ccc(C(F)(F)F)n(C)c2=O)c(F)cc1Cl [1-154] | 5

System: common lambsquarters (Ch)
Test: as above
Type: in vivo
Parameters: scale not given here
Conditions: dose 6.3 g ai/10a, 21st day after application
Description: as §1, §2

Row | SMILES | Herbicidal effects Ch
12 | CCCOc1cc(-c2ccc(C(F)(F)F)n(C)c2=O)c(F)cc1Cl [1-154] | 5

System: China jute (Ab)
Test: as above
Type: in vivo
Parameters: scale not given here
Conditions: dose 6.3 g ai/10a, 21st day after application
Description: as §1, §2

Row | SMILES | Herbicidal effects Ab
13 | CCCOc1cc(-c2ccc(C(F)(F)F)n(C)c2=O)c(F)cc1Cl [1-154] | 5

System: slender amaranth (Am)
Test: as above
Type: in vivo
Parameters: scale not given here
Conditions: dose 6.3 g ai/10a, 21st day after application
Description: as §1, §2

Row | SMILES | Herbicidal effects Am
14 | CCCOc1cc(-c2ccc(C(F)(F)F)n(C)c2=O)c(F)cc1Cl [1-154] | 5

System: pale smartweed (Po)
Test: as above
Type: in vivo
Parameters: scale not given here
Conditions: dose 6.3 g ai/10a, 21st day after application
Description: as §1, §2

Row | SMILES | Herbicidal effects Po
15 | CCCOc1cc(-c2ccc(C(F)(F)F)n(C)c2=O)c(F)cc1Cl [1-154] | 5

System: green foxtail (Se)
Test: Test Example 6: crop plant selectivity by upland field soil treatment (soybean), herbicidal effects
Type: in vivo
Parameters: scale not given here
Conditions: dose 6.3 g ai/10a, 21st day after application
Description: as §1
(§5) In a plastic pot (surface area: 600 cm^2) filled with sand, soybean (Gl), Diaitaria ciliaris (Di), green foxtail (Se), Johnsongrass (So), pale smartweed (Po), slender amaranth (Am), common lambsquarters (Ch) and China jute (Ab) were sown and covered with soil. […] The plants were then cultured in a green house, and the evaluation of the herbicidal effects and phytotoxicity was conducted on the 21st day after the application in accordance with the standards as identified in Table 47. Symbol—represents “not tested”.

Row | SMILES | Herbicidal effects Se
16 | CCCOc1cc(-c2ccc(C(F)(F)F)n(C)c2=O)c(F)cc1Cl [1-154] | 5

System: common lambsquarters (Ch)
Test: as above
Type: in vivo
Parameters: scale not given here
Conditions: dose 6.3 g ai/10a, 21st day after application
Description: as §1, §5

Row | SMILES | Herbicidal effects Ch
17 | CCCOc1cc(-c2ccc(C(F)(F)F)n(C)c2=O)c(F)cc1Cl [1-154] | 5

System: China jute (Ab)
Test: as above
Type: in vivo
Parameters: scale not given here
Conditions: dose 6.3 g ai/10a, 21st day after application
Description: as §1, §5

Row | SMILES | Herbicidal effects Ab
18 | CCCOc1cc(-c2ccc(C(F)(F)F)n(C)c2=O)c(F)cc1Cl [1-154] | 5

System: slender amaranth (Am)
Test: as above
Type: in vivo
Parameters: scale not given here
Conditions: dose 6.3 g ai/10a, 21st day after application
Description: as §1, §5

Row | SMILES | Herbicidal effects Am
19 | CCCOc1cc(-c2ccc(C(F)(F)F)n(C)c2=O)c(F)cc1Cl [1-154] | 5
